Test results as given in US9458165B2, “DOT1L inhibitors” (Dana-Farber Cancer Institute, Inc., priority 2014, dated 2016).

Legend:
[1] = target: His6-DOT1L (Homo sapiens, UniProt Q8TEK3); assay: ALPHA assay (AlphaScreen) of probe displacement from DOT1L; assay type: binding; details: FIG. 9
Text: In and ALPHA assay binding of binding partners captured on the beads leads to an energy transfer from one bead to the other, ultimately producing a luminescent signal. Alpha assays require two bead types: donor beads and acceptor beads. Donor beads contain a photosensitizer, phthalocyanine, which converts ambient oxygen to an excited and reactive form of O2, singlet oxygen, upon illumination at 680 nm. Within its 4 μsec half-life, singlet oxygen can diffuse approximately 200 nm in solution. If an Acceptor bead is within that distance, energy is transferred from the singlet oxygen to thioxene derivatives within the Acceptor bead, resulting in light production. If the Donor bead is not in proximity of an Acceptor bead, the singlet oxygen falls to ground state and no signal is produced. […]
Two stock solutions are made at 2× the final concentration in Alpha buffer. […] Finally, 10 μL of solution B is added to the 384 well alpha plate, the plate is spun down and incubated at room temperature and read on a plate reader.
Plates can be read with an Envision plate reader, which comes with a predefined AlphaScreen program that has the correct excitation and emission wavelengths, cutoff filters, delay time, etc. […]
Plates are incubated at room temperature for 20 minutes, then read on plate reader.

[2] = test system: MV411; assay: Cellular activity in DOT1L related leukemia cell line (FIG. 10A); assay type: cell-based; details: compared to EPZ4777, FIG. 10A
[3] = test system: HL60; assay: Cellular activity in HL60 cell line (FIG. 10B); assay type: cell-based; details: compared to EPZ4777, FIG. 10B
[4] = test system: H3K27Me3 mark; assay: Western blot assay; assay type: cell-based; details: compared to EPZ004777 and CC001, FIG. 5
[5] = test system: MV4:11 cell line; assay: Anti-proliferation study; assay type: cell-based; details: compared to CC001, FIG. 7
[6] = Pharmacokinetic study, intravenous 5 mg/kg; assay type: in vivo; details: CD1 mice
Description: Pharmacokinetic studies of the compound of Example 1 (i.e. CC-006) and previously disclosed compounds EPZ004777, CC001 (see U.S. 2014/0051654) and FED1 were performed in CD1 mice following intravenous administration, as detailed in Table 1.
Mean plasma concentration-time profiles representative of the compound of Example 1 (i.e. CC-006) after intravenous dosing (5 mg kg^−1) are shown in FIG. 8A (data represent the mean and s.d. (n=3)). […] From the pharmacokinetic properties, the compound of Example 1 (i.e. CC-006) has potential for use in treatment using intravenous administration due to its long half-life, as compared to subcutaneous administration.

[7] = Cellular assays (not specified at the place); assay type: cell-based
Description: The compounds of Examples 1-4 and known DOT1L inhibitors were analyzed in a High Content Imaging Assay (HCI).

Sequence of His6-DOT1L (Q8TEK3 whole entry): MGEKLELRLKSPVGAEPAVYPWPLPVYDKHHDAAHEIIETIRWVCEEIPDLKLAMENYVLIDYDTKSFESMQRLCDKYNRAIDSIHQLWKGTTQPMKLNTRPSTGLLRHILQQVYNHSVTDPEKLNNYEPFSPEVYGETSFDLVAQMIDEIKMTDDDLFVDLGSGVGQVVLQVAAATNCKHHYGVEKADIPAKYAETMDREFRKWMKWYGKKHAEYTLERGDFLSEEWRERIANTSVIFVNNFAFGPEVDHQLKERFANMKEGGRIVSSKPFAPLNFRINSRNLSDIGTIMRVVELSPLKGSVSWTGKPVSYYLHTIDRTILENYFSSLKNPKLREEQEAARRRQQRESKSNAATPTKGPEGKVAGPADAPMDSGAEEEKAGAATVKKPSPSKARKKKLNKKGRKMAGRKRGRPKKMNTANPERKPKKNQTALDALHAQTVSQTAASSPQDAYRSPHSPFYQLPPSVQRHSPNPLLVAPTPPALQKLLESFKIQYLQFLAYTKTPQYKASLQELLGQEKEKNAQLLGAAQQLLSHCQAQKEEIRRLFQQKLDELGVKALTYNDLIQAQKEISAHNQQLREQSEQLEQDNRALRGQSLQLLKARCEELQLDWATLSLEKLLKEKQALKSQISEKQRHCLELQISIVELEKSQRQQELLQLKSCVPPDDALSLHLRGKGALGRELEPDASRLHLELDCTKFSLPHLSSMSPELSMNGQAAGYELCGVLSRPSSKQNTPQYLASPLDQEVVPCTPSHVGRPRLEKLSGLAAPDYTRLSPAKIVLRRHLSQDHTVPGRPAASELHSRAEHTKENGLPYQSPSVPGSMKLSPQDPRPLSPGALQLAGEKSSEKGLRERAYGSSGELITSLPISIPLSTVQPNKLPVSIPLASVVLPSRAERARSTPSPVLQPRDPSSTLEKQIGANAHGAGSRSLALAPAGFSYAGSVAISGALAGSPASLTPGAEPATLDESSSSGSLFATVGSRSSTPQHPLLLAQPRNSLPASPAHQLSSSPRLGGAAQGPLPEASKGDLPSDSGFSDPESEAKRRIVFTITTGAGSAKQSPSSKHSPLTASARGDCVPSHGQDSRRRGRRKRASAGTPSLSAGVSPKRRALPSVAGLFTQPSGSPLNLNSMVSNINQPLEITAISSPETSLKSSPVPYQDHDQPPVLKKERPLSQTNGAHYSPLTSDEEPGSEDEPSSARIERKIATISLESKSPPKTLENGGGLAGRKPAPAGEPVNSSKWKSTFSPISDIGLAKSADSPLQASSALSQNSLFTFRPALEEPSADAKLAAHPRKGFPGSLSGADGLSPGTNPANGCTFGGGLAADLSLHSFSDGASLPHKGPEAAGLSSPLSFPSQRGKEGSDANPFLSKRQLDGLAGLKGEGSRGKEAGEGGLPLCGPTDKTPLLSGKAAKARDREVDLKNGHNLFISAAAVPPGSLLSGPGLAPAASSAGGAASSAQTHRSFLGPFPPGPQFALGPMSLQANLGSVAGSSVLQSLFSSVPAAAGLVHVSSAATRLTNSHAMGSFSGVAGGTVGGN

CC(C)N(C[C@H]1C[C@@H](n2cc(C#N)c3c(N)ncnc32)[C@H](O)[C@@H]1O)C1CC(CCc2nc3ccc(C(C)(C)C)cc3[nH]2)C1 (stereo partly drawn) [Example 1, 4-amino-7-((1R,2S,3R,4R)-4-(((3-(2-(6-(tert-butyl)-1H-benzo[d]imidazol-2-yl)ethyl)cyclobutyl)(isopropyl)amino)methyl)-2,3-dihydroxycyclopentyl)-7H-pyrrolo[2,3-d]pyrimidine-5-carbonitrile]
binding to DOT1L (ALPHA screen) [1]: binds to DOT1L | cellular activity on DOT1L related leukemia [2]: more potent than EPZ4777 | cellular activity on HL60 [3]: but not on HL60 | reduction of H3K27 trimethylation [4]: can reduce the H3K27 trimethylation at much lower dose compared to known DOT1L inhibitors EPZ004777 (structure shown below) and CC001 | anti-proliferation activity [5]: greater than known DOT1L inhibitor CC001 | half-life relative to the half-life of EPZ004777 [6]: approximately 4.3 × | half-life relative to the half-life of FED1 [6]: ~10.5 × | drug exposure (area under the curve (AUC)) ([6]; 5 mg/kg, FIG. 8B): good drug exposure | half-life ([6]; mouse, plasma, 5 mg/kg, FIG. 8B, read-out: half-life (T1/2) (converted)): 12.6 h | cellular activity compared to CC0001 [7]: largely improved cellular activity compared to CC0001
